According to PubChem BioAssay AID2060895 (Molecular Pharmacology Branch, DTP, NCI, 2025):
pIC50: −log10 of the molar value.

Test system: PDC 899932-113-R3-J6 complex spheroid viability
Test: Anticancer human tumor 899932-113-R3-J6-PDC patient-derived melanoma cell line growth inhibition [RAS]
Settings: for pIC50: curve of first compound; for viability, T/C: stronger effect = lower value
Outline: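 Agents were tested in combination matrices in half-log decrements from a top concentration at or near clinical Cmax (10 microM if undetermined). Targets were multi-cell spheroids of tumour lines plus HUVEC and MSC stromal cells.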
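Throughout, for viability, T/C: spheroids exposed to agents for seven days before readout; 100% = DMSO vehicle control wells.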

CC1(C)CCC(Nc2ncc(C(F)(F)F)c(-c3c[nH]c4c(P(C)(C)=O)c(C#N)ccc34)n2)CN1 (configuration not stated) + C#Cc1c(F)ccc2cc(O)cc(-c3ncc4c(N5CC6CCC(C5)N6)nc(OCC56CCCN5CC(F)C6)nc4c3F)c12
pIC50 (second compound 0.0316 µM): 7.79
pIC50 (second compound 0.1 µM): 7.82
pIC50 (second compound 0.316 µM): 7.78
pIC50 (second compound 1 µM): 7.80
pIC50 (second compound 3.16 µM): 7.72
pIC50 (second compound 10 µM): 7.68
viability, T/C (second compound 0.0316 µM, first compound 0.000949 µM): 100%
viability, T/C (second compound 0.0316 µM, first compound 0.003 µM): 82.4%
viability, T/C (second compound 0.0316 µM, first compound 0.00949 µM): 57.3%
viability, T/C (second compound 0.0316 µM, first compound 0.03 µM): 45.7%
viability, T/C (second compound 0.0316 µM, first compound 0.0949 µM): 13.2%
viability, T/C (second compound 0.0316 µM, first compound 0.3 µM): 9.56%
viability, T/C (second compound 0.1 µM, first compound 0.000949 µM): 97.2%
viability, T/C (second compound 0.1 µM, first compound 0.003 µM): 79.1%
viability, T/C (second compound 0.1 µM, first compound 0.00949 µM): 56.9%
viability, T/C (second compound 0.1 µM, first compound 0.03 µM): 42.8%
viability, T/C (second compound 0.1 µM, first compound 0.0949 µM): 14.3%
viability, T/C (second compound 0.1 µM, first compound 0.3 µM): 7.89%
viability, T/C (second compound 0.316 µM, first compound 0.000949 µM): 102%
viability, T/C (second compound 0.316 µM, first compound 0.003 µM): 84.9%
viability, T/C (second compound 0.316 µM, first compound 0.00949 µM): 53.5%
viability, T/C (second compound 0.316 µM, first compound 0.03 µM): 47.5%
viability, T/C (second compound 0.316 µM, first compound 0.0949 µM): 15.9%
viability, T/C (second compound 0.316 µM, first compound 0.3 µM): 11.3%
viability, T/C (second compound 1 µM, first compound 0.000949 µM): 104%
viability, T/C (second compound 1 µM, first compound 0.003 µM): 79.4%
viability, T/C (second compound 1 µM, first compound 0.00949 µM): 58%
viability, T/C (second compound 1 µM, first compound 0.03 µM): 45.5%
viability, T/C (second compound 1 µM, first compound 0.0949 µM): 13.5%
viability, T/C (second compound 1 µM, first compound 0.3 µM): 9.51%
viability, T/C (second compound 3.16 µM, first compound 0.000949 µM): 112%
viability, T/C (second compound 3.16 µM, first compound 0.003 µM): 84.9%
viability, T/C (second compound 3.16 µM, first compound 0.00949 µM): 64.6%
viability, T/C (second compound 3.16 µM, first compound 0.03 µM): 47.1%
viability, T/C (second compound 3.16 µM, first compound 0.0949 µM): 13.6%
viability, T/C (second compound 3.16 µM, first compound 0.3 µM): 8.79%
viability, T/C (second compound 10 µM, first compound 0.000949 µM): 108%
viability, T/C (second compound 10 µM, first compound 0.003 µM): 87.6%
viability, T/C (second compound 10 µM, first compound 0.00949 µM): 55.1%
viability, T/C (second compound 10 µM, first compound 0.03 µM): 58.9%
viability, T/C (second compound 10 µM, first compound 0.0949 µM): 11.1%
viability, T/C (second compound 10 µM, first compound 0.3 µM): 6.89%
